These results are taken from US9745267B2, “Compounds as modulators of RORC” (Boehringer Ingelheim International GmbH, priority 2013, dated 2017).

This assay concerns the target T1, RORγt (hRORC LBD) (Homo sapiens, UniProt P51449).
T1 construct: expressed in transfected cells; host or cells: HEK 293 (transient cotransfection with pGL4.3 luc2P/GAL4UAS/Hygro reporter)
T1 sequence (P51449 269-508 limits assumed): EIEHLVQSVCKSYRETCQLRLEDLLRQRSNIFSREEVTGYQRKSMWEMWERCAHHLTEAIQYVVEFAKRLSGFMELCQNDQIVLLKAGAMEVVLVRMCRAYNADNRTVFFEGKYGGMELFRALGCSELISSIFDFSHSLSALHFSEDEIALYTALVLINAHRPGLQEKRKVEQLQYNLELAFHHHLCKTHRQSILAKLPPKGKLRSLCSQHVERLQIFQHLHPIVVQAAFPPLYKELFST
As to the kind of experiment: RGA Assay: nuclear receptor transactivation assay, RORγt transactivation of a luciferase reporter. The note with it: transiently transfected HEK 293 cells, Gal4DBD hRORC LBD, 20-24 hours incubation. In kind it is cell-based. How it is done: A nuclear receptor transactivation assay was performed to quantitate the ability of test compounds to inhibit RORγt transactivation of a luciferase reporter. A similar assay is described in: Khan et al., Bioorganic & Medicinal Chemistry Letters 23 (2013), 532-536. The system uses transiently transfected HEK 293 cells cotransfected with two plasmids (pGL4.3, luc2P/GAL4UAS/Hygro, and pBIND, Gal4DBD hRORC LBD1-3). The positive control is co-transiently transfected with both plasmids, and the negative control contains the pGL4.3 promoter sequence. Assays were assembled in 384 well plates where transiently transfected cells and test compound at varying concentrations were incubated for 20-24 hours. The next day, assays plates are taken out and equilibrated at RT for 20-30 minutes. Bright-Glo™ Luciferase Assay System is used to detect Luciferase production. After addition of Bright GLO detection reagent, the plates were incubated at RT for 20 minutes. The plates were read on an Envision plate reader to measure luminescence signal. The RLU signal is converted to POC relative to control and blank wells.
Compound Dilution Buffer:
Bright Glo Luciferase Assay System: Promega #E2620
Thaw lysis buffer provided in kit, add 100 mL lysis buffer to substrate powder.

For orientation: IC50 means the concentration at which inhibition is half-maximal. Low readings indicate greater potency in that assay, high ones weaker potency in that assay. In the case of `CCOC(=O)c1ccccc1-c1ccc2c(c1)C1(CCCC1)CN2C(=O)NCc1ccc(S(=O)(=O)NC)cc1` [Example 24], the IC50 came to 1300 nM.

`CCS(=O)(=O)c1ccc(CNC(=O)N2CC3(CCCC3)c3cc(-c4cc(F)ccc4CC#N)ccc32)cc1` [Example 72] had an IC50 of 1200 nM.

As for `CCS(=O)(=O)c1ccc(CNC(=O)N2CC3(CCCC3)c3cc(-c4cncnc4C(C)C)ccc32)cc1` [Example 76], the IC50 came out at 610 nM. As for `CNS(=O)(=O)c1ccc(CNC(=O)N2CC3(CCCC3)c3cc(-c4cccc(N5CCCC5)c4)ccc32)cc1` [Example 5], the IC50 worked out at 1600 nM. Turning to `CCS(=O)(=O)c1ccc(CNC(=O)N2CC3(CCCC3)c3cc(-c4c(OC)nc(N(C)C)nc4C4CC4)ccc32)cc1` [Example 130], 310 nM corresponded to half-maximal inhibition (IC50).

The compound `CCS(=O)(=O)c1ccc(CNC(=O)N2CC3(CCC3)c3cc(-c4c(OC)ncnc4C4CC4)ccc32)cc1` [Example 128] showed an IC50 of 210 nM. The result for `CNS(=O)(=O)c1ccc(CNC(=O)N2CC(C)(CC(C)C)c3cc(-c4ccc(F)cc4C)ccc32)cc1` (stereo not shown) [Example 59] reads 1500 nM; that for `CNS(=O)(=O)c1ccc(CNC(=O)N2CC3(CCCC3)c3cc(-c4cccc5cccnc45)ccc32)cc1` [Example 4], 1500 nM. The result for `CNS(=O)(=O)c1ccc(CNC(=O)N2CC3(CCCC3)c3cc(-c4ccccc4C)ccc32)cc1` [Example 2] reads 920 nM. The result for `CCC1(C2CC2)CN(C(=O)NCc2ccc(S(=O)(=O)CC)cc2)c2ccc(-c3c(OC)ncnc3C3CC3)cc21` (stereo not shown) [Example 118] reads 470 nM; that for `CNS(=O)(=O)c1ccc(CNC(=O)N2CC3(CCCC3)c3cc(-c4c(C)ccc5c4cnn5C)ccc32)cc1` [Example 32], 750 nM.

`CNS(=O)(=O)c1ccc(CNC(=O)N2CC3(CCCC3)c3cc(-c4ccc(C)cc4C)ccc32)cc1` [Example 14] displayed an IC50 of 870 nM. For the compound `CCS(=O)(=O)c1ccc(CNC(=O)N2CC(C)(C3CCC3)c3cc(-c4cncnc4C(C)C)ccc32)cc1` (stereo not shown) [Example 116], the midpoint of inhibition, the IC50, lay at 1000 nM. For `CCS(=O)(=O)c1ccc(CNC(=O)N2CC3(CCCC3)c3cc(-c4ccc(C#N)cc4C)ccc32)cc1` [Example 71] the value was 740 nM; for `CNS(=O)(=O)c1ccc(CNC(=O)N2CC3(CCCC3)c3cc(-c4cc(C)c(OC)cc4C)ccc32)cc1` [Example 83], 370 nM. In turn, `CNS(=O)(=O)c1ccc(CNC(=O)N2CC3(CCCC3)c3cc(-c4cccc(F)c4CC#N)ccc32)cc1` [Example 43] yielded an IC50 of 1100 nM. `CNS(=O)(=O)c1ccc(CNC(=O)N2CC(C)(C)c3cc(-c4ccc(OC)cc4C(F)(F)F)ccc32)cc1` [Example 58]: the IC50 is 880 nM.

In turn, `CNS(=O)(=O)c1ccc(CNC(=O)N2CC3(CCCC3)c3cc(-c4ccc(O)cc4C#N)ccc32)cc1` [Example 88] had an IC50 of 910 nM. The result for `CCS(=O)(=O)c1ccc(CNC(=O)N2CC3(CCCC3)c3cc(-c4ccc(C)cc4C#N)ccc32)cc1` [Example 70] reads 1300 nM; that for `COc1ncnc(C)c1-c1ccc2c(c1)C1(CCCC1)CN2C(=O)NCc1ccc(S(C)(=O)=O)cc1` [Example 109], 1700 nM; that for `CCS(=O)(=O)c1ccc(CNC(=O)N2CC3(CCCC3)c3cc(-c4ccc(O)cc4C)ccc32)cc1` [Example 67], 410 nM.

In the case of `CCS(=O)(=O)c1ccc(CNC(=O)N2C[C@@](C)(C3CC3)c3cc(-c4c(OC)ncnc4C4CC4)ccc32)cc1` [Example 126], inhibition was half-maximal at 400 nM (IC50).
